From the OligoGym collection
After the bases stand the sugars from the 5' end (letter, count) and the backbone: PS all phosphorothioate, else s phosphorothioate and o phosphodiester by linkage. Methylation of C is not given here. e = 2'-O-(2-methoxyethyl) (MOE); k = constrained ethyl (cEt); d = 2'-deoxy (DNA); m = 2'-O-methyl

Target: HSD17B13
Details: ASO, HepaRG

Sequence | target mRNA inhibition (1 µM) [%] | also measured
ACTGATACATACCACT (sugars k3 d10 k3, PS) | 52 | 
ACTGCTGCTAGTGCCA (sugars k3 d1 m1 d8 k3, PS) | 64 | 
ACTGCTGCTAGTGCCA (sugars k3 d10 k3, PS) | 47 | 
ACTGGATGGATTTCTC (sugars k3 d10 k3, PS) | 83 | target mRNA inhibition (0.02 µM): 9%; target mRNA inhibition (0.078 µM): 20%; target mRNA inhibition (0.313 µM): 45%; target mRNA inhibition (1.25 µM): 60%; target mRNA inhibition (5 µM): 88%
ACTTACCAATATGGGA (sugars k3 d10 k3, PS) | 0 | 
ACTTCACCAACGACTC (sugars k3 d10 k3, PS) | 15 | 
ACTTGAACAGTCTTAA (sugars k3 d10 k3, PS) | 63 | 
ACTTGATCTCTTAGCT (sugars k3 d1 m1 d8 k3, PS) | 39 | 
ACTTGATCTCTTAGCT (sugars kkdddddddddkekek, PS) | 62 | 
AGAAAGTTCATTCGAA (sugars k3 d10 k3, PS) | 61 | 
AGAAATTCACCTTGAC (sugars k3 d1 m1 d8 k3, PS) | 9 | 
AGAAATTCACCTTGAC (sugars k3 d9 k3 e1, PS) | 7 | 
AGAAATTCACCTTGAC (sugars k3 d10 k3, PS) | 39 | 
AGAAATTCACCTTGAC (sugars kkdddddddddkekek, PS) | 33 | 
AGAAGATATTATCAGC (sugars k3 d10 k3, PS) | 64 | 
AGAATACGCTGAGAGT (sugars k3 d10 k3, PS) | 56 | 
AGAATAGGAGAGTCTT (sugars k3 d10 k3, PS) | 64 | 
AGACAAGAGTTCTTGC (sugars k3 d10 k3, PS) | 30 | 
AGACAATACAGGATAG (sugars k3 d10 k3, PS) | 15 | 
AGACAGACCAAGTAGC (sugars k3 d10 k3, PS) | 21 | 
AGACAGGTAATTAATC (sugars k3 d10 k3, PS) | 29 | 
AGACTTCTTACGACTT (sugars k3 d10 k3, PS) | 41 | 
AGAGCGATAGATCTCT (sugars k3 d10 k3, PS) | 8 | 
AGAGGATAGTCCATGC (sugars k3 d1 m1 d8 k3, PS) | 53 | 

Sequence | target mRNA inhibition (1 µM) [%] | also measured
AGAGGATAGTCCATGC (sugars k3 d9 k3 e1, PS) | 78 | target mRNA inhibition (0.02 µM): 0%; target mRNA inhibition (0.078 µM): 3%; target mRNA inhibition (0.313 µM): 40%; target mRNA inhibition (1.25 µM): 50%; target mRNA inhibition (5 µM): 44%
AGAGGATAGTGAACAT (sugars k3 d10 k3, PS) | 59 | 
AGAGGCTAGGGAAATC (sugars k3 d1 m1 d8 k3, PS) | 48 | 
AGAGTCGGTCACCTTT (sugars kkdddddddddkekek, PS) | 61 | 
AGAGTTGCACCGTTTT (sugars k3 d10 k3, PS) | 76 | target mRNA inhibition (0.02 µM): 5%; target mRNA inhibition (0.078 µM): 11%; target mRNA inhibition (0.313 µM): 40%; target mRNA inhibition (1.25 µM): 81%; target mRNA inhibition (5 µM): 87%
AGATAAAGCTGCCTGC (sugars k3 d10 k3, PS) | 48 | 
AGCAGAATTGTGAACG (sugars kkdddddddddkekek, PS) | 31 | 
AGCATTCATCAGATGT (sugars k3 d10 k3, PS) | 83 | target mRNA inhibition (0.02 µM): 0%; target mRNA inhibition (0.078 µM): 12%; target mRNA inhibition (0.313 µM): 40%; target mRNA inhibition (1.25 µM): 65%; target mRNA inhibition (5 µM): 56%
AGCATTCCATGATTAA (sugars k3 d10 k3, PS) | 47 | 
AGCATTGATTCGAAAC (sugars k3 d10 k3, PS) | 70 | 
AGCCAGTACAGTTCCT (sugars k3 d9 k3 e1, PS) | 59 | 
AGCTAACTCAGGCTGT (sugars k3 d10 k3, PS) | 14 | 
AGCTCCAGTAATGAGA (sugars k3 d10 k3, PS) | 26 | 
AGCTTATCGAGTTTAG (sugars k3 d10 k3, PS) | 54 | 
AGCTTTGCAGCATTGA (sugars k3 d10 k3, PS) | 62 | 
AGCTTTTGTCCACCTT (sugars kkdddddddddkekek, PS) | 62 | 
AGCTUTTGTCCACCTT (sugars k3 d1 m1 d8 k3, PS) | 72 | 
AGGAAATATAGAGGGT (sugars k3 d10 k3, PS) | 54 | 
AGGATACCTGAAAAGC (sugars k3 d10 k3, PS) | 81 | target mRNA inhibition (0.02 µM): 13%; target mRNA inhibition (0.078 µM): 23%; target mRNA inhibition (0.313 µM): 54%; target mRNA inhibition (1.25 µM): 70%; target mRNA inhibition (5 µM): 88%
AGGATAGTCCATGCAA (sugars k3 d9 k3 e1, PS) | 61 | 
AGGATAGTCCATGCAA (sugars k3 d10 k3, PS) | 64 | 
AGGATTAATCATGGGA (sugars k3 d10 k3, PS) | 37 | 
AGGATTAATTCCCTTC (sugars k3 d10 k3, PS) | 19 | 
AGGCAAAGATCTGGCC (sugars k3 d10 k3, PS) | 7 | 

Sequence | target mRNA inhibition (1 µM) [%] | also measured
AGGCATTAGATGGTAA (sugars k3 d10 k3, PS) | 51 | 
AGGCTAGGGAAATCTT (sugars kkdddddddddkekek, PS) | 45 | 
AGGCTGTAAGAGTCAG (sugars kkdddddddddkekek, PS) | 38 | 
AGGTAAACTAAAGTAC (sugars k3 d10 k3, PS) | 6 | 
AGGTATGTCATACTTC (sugars k3 d10 k3, PS) | 5 | 
AGGTUGAGATAAAGCT (sugars k3 d1 m1 d8 k3, PS) | 58 | 
AGTAAATTGAATAGCC (sugars k3 d10 k3, PS) | 39 | 
AGTAATGAGAACAATC (sugars k3 d10 k3, PS) | 45 | 
AGTAATTGCATCTGCT (sugars k3 d10 k3, PS) | 42 | 
AGTACAGTTCCTTTTC (sugars k3 d9 k3 e1, PS) | 59 | 
AGTACAGTTCCTTTTC (sugars k3 d10 k3, PS) | 69 | 
AGTAGAGAGCATAAGT (sugars k3 d10 k3, PS) | 52 | 
AGTAGGAGTAGATGAT (sugars k3 d10 k3, PS) | 0 | 
AGTAGTAATTCTAAAC (sugars k3 d10 k3, PS) | 23 | 
AGTATGTGAACTCCGT (sugars k3 d10 k3, PS) | 81 | target mRNA inhibition (0.02 µM): 0%; target mRNA inhibition (0.078 µM): 5%; target mRNA inhibition (0.313 µM): 30%; target mRNA inhibition (1.25 µM): 67%; target mRNA inhibition (5 µM): 86%
AGTCCATGCAAAAGCA (sugars k3 d9 k3 e1, PS) | 80 | target mRNA inhibition (0.02 µM): 1%; target mRNA inhibition (0.078 µM): 15%; target mRNA inhibition (0.313 µM): 43%; target mRNA inhibition (1.25 µM): 74%; target mRNA inhibition (5 µM): 85%
AGTCCATGCAAAAGCA (sugars k3 d10 k3, PS) | 77 | target mRNA inhibition (0.02 µM): 1%; target mRNA inhibition (0.078 µM): 14%; target mRNA inhibition (0.313 µM): 38%; target mRNA inhibition (1.25 µM): 55%; target mRNA inhibition (5 µM): 78%
AGTCCATGCAAAAGCA (sugars kkdddddddddkekek, PS) | 52 | 
AGTGAACATACATTGT (sugars k3 d10 k3, PS) | 48 | 
AGTGCATCTTAAGATA (sugars k3 d9 k3 e1, PS) | 12 | 
AGTGCCAAACCAATGT (sugars k3 d1 m1 d8 k3, PS) | 24 | 
AGTGCCAAACCAATGT (sugars k3 d10 k3, PS) | 62 | 
AGTTAGTATAGTTATC (sugars kkdddddddddkekek, PS) | 47 | 
AGTTATTAGAAGTCAG (sugars k3 d10 k3, PS) | 54 | 

Sequence | target mRNA inhibition (1 µM) [%] | also measured
AGTTATTAGAAGTCAG (sugars kkdddddddddkekek, PS) | 42 | 
AGTTTAGAAGTCAAAC (sugars k3 d10 k3, PS) | 23 | 
AGTTTATATGGATTTG (sugars k3 d10 k3, PS) | 67 | 
ATAACCTAATAACTAC (sugars k3 d10 k3, PS) | 26 | 
ATAACTGAGCTAGACA (sugars k3 d10 k3, PS) | 71 | 
ATAATAATAGCTCTAT (sugars k3 d10 k3, PS) | 1 | 
ATAATGGGCAGAGCTG (sugars k3 d10 k3, PS) | 53 | 
ATACAGGCCATAATCT (sugars k3 d10 k3, PS) | 0 | 
ATACGACTTCCTTCTA (sugars k3 d10 k3, PS) | 44 | 
ATACTAATGTCCAAGG (sugars k3 d10 k3, PS) | 89 | target mRNA inhibition (0.02 µM): 12%; target mRNA inhibition (0.078 µM): 43%; target mRNA inhibition (0.313 µM): 94%; target mRNA inhibition (1.25 µM): 84%
ATACTTTTCCGTCTCA (sugars k3 d10 k3, PS) | 90 | target mRNA inhibition (0.02 µM): 10%; target mRNA inhibition (0.078 µM): 41%; target mRNA inhibition (0.313 µM): 71%; target mRNA inhibition (1.25 µM): 90%
ATAGAGGGTCCACTTT (sugars k3 d10 k3, PS) | 21 | 
ATAGAGTCGGTCACCT (sugars k3 d10 k3, PS) | 60 | 
ATAGCAAGCCAACAGA (sugars k3 d1 m1 d8 k3, PS) | 1 | 
ATAGCAAGCCAACAGA (sugars k3 d9 k3 e1, PS) | 30 | 
ATAGTCCATGCAAAAG (sugars k3 d9 k3 e1, PS) | 29 | 
ATAGTTCAAATTGGAT (sugars k3 d10 k3, PS) | 48 | 
ATAGUCCATGCAAAAG (sugars k3 d1 m1 d8 k3, PS) | 57 | 
ATATACGATGGAACAA (sugars k3 d10 k3, PS) | 0 | 
ATATAGAGGGTCCACT (sugars k3 d10 k3, PS) | 18 | 
ATATATCCTTCCTTGG (sugars k3 d10 k3, PS) | 20 | 
